Laboratory results: US12150940B2, “WASp-protecting small molecules, compositions, methods and uses thereof in the treatment of innate and acquired immune-related disorders or conditions” (BAR ILAN UNIVERSITY, priority 2016, dated 2024)

Columns and labels:
WIP-WASp interaction = target: T1, WIP-WASp interaction (Homo sapiens, UniProt P42768, K230R/R34Q); test: FRET analysis of WIP-WASp interaction in activated T-cells expressing CFP-WASp and YFP-WIP; type: cell-based; details: anti-CD3 stimulatory coverslips, fixed after 5 min; mean ± SE
T1 construct: expressed in transfected cells
T1 sequence (O43516 whole entry partner, one chain of several): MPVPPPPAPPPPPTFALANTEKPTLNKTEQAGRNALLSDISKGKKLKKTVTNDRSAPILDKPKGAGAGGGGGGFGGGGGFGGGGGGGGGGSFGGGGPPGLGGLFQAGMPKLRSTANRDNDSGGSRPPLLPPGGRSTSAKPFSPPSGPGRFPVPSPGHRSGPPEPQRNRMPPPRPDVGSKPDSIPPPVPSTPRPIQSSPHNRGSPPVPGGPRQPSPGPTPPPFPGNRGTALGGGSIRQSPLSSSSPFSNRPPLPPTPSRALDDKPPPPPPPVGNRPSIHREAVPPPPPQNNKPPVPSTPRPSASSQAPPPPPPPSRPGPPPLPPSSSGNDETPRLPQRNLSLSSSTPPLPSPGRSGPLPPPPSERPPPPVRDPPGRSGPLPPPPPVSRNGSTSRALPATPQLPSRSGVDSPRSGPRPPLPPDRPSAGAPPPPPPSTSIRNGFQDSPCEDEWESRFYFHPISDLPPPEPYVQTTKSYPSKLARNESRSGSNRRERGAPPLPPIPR
Description: FIG. 13A: Jurkat T cells stably expressing CFP-WASp and YFP-WIP were treated with WASp-binding SMC #6, SMC #30, SMC #33, SMC #34 or control. The cells were then plated on stimulatory coverslips (coated with an anti-CD3 antibody), and fixed after 5 min. Cells were imaged by confocal microscope, and FRET efficiency was measured by the donor-sensitized acceptor emission technology (see Experimental procedures for details).
FIG. 13B: graph summarizing the percentage FRET efficiency in cells plated on the stimulatory coverslips, with the indicated treatment. Data are from four independent experiments. Error bars represent the SE from the mean. P values were calculated by two-tailed Student's t-test.
Spreading assays were performed as previously described (Fried et al, 2014; Barda-Saad 2005). Briefly, T cells (2×10^6 cells/ml) were seeded on the bottom of chambered cover glasses (LabTek) that were pre-coated with anti-CD3 stimulatory monoclonal antibodies (10 μg/ml). The cells were incubated in imaging buffer [RPMI without phenol red containing 10% fetal calf serum (FCS) and 25 mM HEPES] at 37° C., 5% CO2, for the times indicated in the figure legends. Cells were fixed for 25 min with 4% paraformaldehyde in phosphate-buffered saline (PBS) and then were washed three times with PBS.
Double-color FRET was performed as described previously (Barda-Saad et al, 2005; Pauker, 2011, Pauker, 2012). […] The non-FRET components were calculated and removed with calibration curves derived from images of single-labeled cells containing CFP or YFP, as previously described (Barda-Saad et al, 2005). […] Bleed-through components were calculated as a function of the intensity of the expressed fluorescent proteins with data gathered from single-labeled cell lines. By using the intensity measured pixel by pixel through the different filter sets, as well as cross-talk elements that were isolated from the control, single-labeled cells, the measured FRET was corrected and the actual FRET efficiency at every pixel was determined. The relative FRET efficiency (FRETeff) was calculated on a pixel-by-pixel basis with the following equation: FRETeff=FRETcorr/(FRETcorr+donor)×100%, where FRETcorr is the pixel intensity in the corrected FRET image, and donor is the intensity of the corresponding pixel in the appropriate donor channel image. To increase the reliability of the calculations and to prevent low-level noise from distorting the calculated ratio, the inventors excluded pixels below 50 intensity units, as well as saturated pixels from the calculations, and set their intensities to zero. […] The FRET efficiency in the negative control system was measured and calculated in the same manner as that in the main experiment. […]

PBMCs = test: Lymphocyte activation in PBMCs (CD69 and activated LFA-1, flow cytometry); type: cell-based, human; details: PBMCs stimulated with PMA and Ionomycin, vs control
Description: Figures show 1×10^6 PBMC cells/ml stimulated with PMA and Ionomycin that were treated with DMSO or WASp-binding SMCs. After incubation, the cells were stained with PE-Cy5™-conjugated mouse anti-human CD69 and lymphocyte activation was measured by flow-cytometry as described in the Experimental procedures. Histograms of DMSO versus SMC #6 (FIG. 8A), SMC #30 (FIG. 8B), SMC #33 (FIG. 8C), and SMC #34 (FIG. 8D) are presented and represent three independent experiments.
After incubation, the cells were stained with anti-activated LFA-1 antibody (KIM127), followed by staining with Alexa488-Fluor goat anti-mouse IgG1 secondary antibody, and lymphocyte activation was measured by flow-cytometry as described in the Experimental procedures. Histogram of negative control versus SMC #6 is presented.
PBMCs or Jurkat cells (about 3×10^5 cells) were incubated for 4 h, at 37° C. with 50 ng/ml PMA and 250 ng/ml lonomycin, or 40 ng/ml PMA and 6 μM Ionomycin, respectively, or left untreated. After incubation, the cells were collected and stained with 1 μg/ml anti-active human LFA-1 antibody (purified from KIM127 hybridoma sup, ATCC Cat #: CRL-2838, Sigma) for 30 min in 37° C., followed by staining with Alexa488-Fluor goat anti-mouse IgG1 secondary antibody (Molecular Probes, Cat #: A-21121), 30 min on ice. Cells were then co-stained with PE-Cy5™-conjugated mouse anti-human CD69 (BD Pharmingen, Cat #: 555532) to measure lymphocyte activation.
Lymphocyte activation is a hallmark of a normal immune response. To test whether treatment with WASp-binding SMCs could upregulate lymphocyte activation, freshly-isolated PBMCs were incubated with SMCs or control (solvent only) and stimulated with PMA and lonomycin. The cells were then stained with two different antibodies, which recognize two lymphocyte activation markers, CD69 and an epitope exposed at the active conformation of the integrin LFA-1 (KIM127). Both were detected by flow-cytometry.

Jurkat T cells = test: Lymphocyte migration on ICAM-1/SDF-1α-coated cover glasses; type: cell-based, human; details: tracked over 20 min, mean ± SE
Description: Jurkat T cells were pretreated with DMSO or the indicated WASp-binding SMCs, and cell migration on ICAM-1/SDF-1α-coated cover glasses was tracked over a 20-min period, as described in Experimental procedures. Each line in FIG. 10A represents one cell. The tracks of five representative cells from each treatment are presented.
Error bars represent the SE from the mean. P values versus DMSO-treated control cells are presented and were calculated by two-tailed Student's t-test.
Approximately 1×10^5 lymphocytes were seeded over chambered coverslips (LabTek) pre-coated with 6 μg/ml ICAM-1 and 2 μg/ml SDF-1α. Cells were incubated at 37° C., 5% CO2 and DIC images were acquired with the Zeiss Observer Z1 inverted microscope every 5 s for 20 min under a 20× objective lens using Zen software. The random movement (Displacement and velocity) of the cells was automatically tracked and analyzed using TrackMate plugin of ImageJ software. An individual trace was assigned to each of the analyzed cells.
A common theme of active lymphocytes is their high migratory ability. This enables them to move within tissues and reach and engage target cells (Burkhardt et al, 2008). Because WASp plays a role in cellular motility, the ability of WASp-binding SMCs to effectively enhance the migration of lymphocytes was tested. The random movement of SMC-treated or control cells was automatically tracked and analyzed using live microscopy, as described in Experimental procedures.

platelets = test: Platelet intra-cellular calcium concentration (Indo-1-AM); type: cell-based, human; details: TRAP-6 10 μM, vs solvent
Description: Freshly-isolated human platelets were incubated with either control DMSO or the indicated WASp-binding SMCs, specifically, SMC #6 (FIG. 11A), SMC #30 (FIG. 11B), SMC #33 (FIG. 11C) and SMC #34 (FIG. 11D). Platelets were stimulated with TRAP-6 and calcium levels were measured by spectrofluorometer, as described in Experimental procedures. Data are representative of three independent experiments.
Cells were incubated with 5 μM Indo-1-acetoxymethylester (Indo-1-AM, Teflabs) in Tyrode's buffer at 37° C. for 20 min. The cells were washed once, resuspended in Tyrode's buffer containing 10 mM HEPES and maintained at room temperature for 20 min. The cells were incubated at 37° C. for 5 min before measurements and then stimulated with 10 μM TRAP-6. The Ca^2+ influx was measured by spectrofluorometer using the Synergy 4 Microplate Reader (Bio Tek).
However, following receptor-mediated stimulation, platelets dramatically elevate their intra-cellular calcium concentrations, which in turn serve as signaling cues that evoke platelet effector functions, including platelet spreading, adhesion and aggregation (Varga-Sabo et al, 2009). Therefore, the ability of WASp-protecting SMCs to upregulate intra-cellular calcium accumulation in activated platelets was next tested. Freshly-isolated human platelets were incubated with SMC #6, #30, #33 and #34 or with the solvent (negative control). Following incubation, platelets were stimulated with thrombin receptor activator peptide TRAP-6 (10 μM) and calcium levels were measured by spectrofluorometer, using Indo-1-AM-based calcium assay as described in Experimental procedures.

human WASp = target: T2, human WASp (Homo sapiens, UniProt P42768, K230R/R34Q); test: MicroScale Thermophoresis (MST) binding, YFP-WASp in HEK 293T cell lysate
T2 construct: expressed in transfected cells; host or cells: HEK 293T, transient transfection; unpurified cell lysate
T2 sequence (P42768 1-502 R34Q/K230R): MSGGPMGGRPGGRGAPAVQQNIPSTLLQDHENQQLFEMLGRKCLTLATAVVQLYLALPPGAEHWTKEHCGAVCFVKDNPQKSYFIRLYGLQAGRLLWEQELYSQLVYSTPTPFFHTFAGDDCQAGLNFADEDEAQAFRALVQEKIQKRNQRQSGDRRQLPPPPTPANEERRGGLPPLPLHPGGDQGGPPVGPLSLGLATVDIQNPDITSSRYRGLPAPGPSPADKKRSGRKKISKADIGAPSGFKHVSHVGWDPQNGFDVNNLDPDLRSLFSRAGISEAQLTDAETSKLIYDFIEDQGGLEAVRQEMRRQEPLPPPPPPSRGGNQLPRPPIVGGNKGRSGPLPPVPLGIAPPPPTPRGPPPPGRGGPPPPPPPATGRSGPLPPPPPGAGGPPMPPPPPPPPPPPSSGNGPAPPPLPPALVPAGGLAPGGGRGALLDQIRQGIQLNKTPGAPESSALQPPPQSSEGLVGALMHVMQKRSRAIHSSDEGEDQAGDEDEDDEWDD
Description: Diluted cell lysates of YFP-WASp/N-WASp/WAVE2-expressing HEK 293T cells were incubated with serially-diluted (100 μM-3 nM) SMCs. The mixed lysates and SMCs were then loaded into standard-treated Monolith™ capillaries and the fluorescence of the samples was measured by the Monolith NT.115 instrument at 60% MST power. Binding curves of WASp with SMC #6 (FIG. 3A), SMC #30 (FIG. 3B), SMC #33 (FIG. 3C), SMC #34 (FIG. 3D) and Y-27632 (FIG. 3E) or of N-WASp (FIG. 3F) or WAVE2 (FIG. 3G) with SMC #34 were generated by the NanoTemper Analysis 2.231 software. Normalized fluorescence (hot fluorescence/initial fluorescence) is plotted as a function of SMC concentration. […]
YFP-tagged WASp was obtained from cell lysates of Human Embryonic Kidney (HEK) 293T, transiently transfected with YFP-WASp/WAVE2/N-WASp by DNA-calcium phosphate co-precipitation as previously described (Reicher et al, 2012). […] After loading into the instrument (Monolith NT.115, NanoTemper), the samples were measured by standard protocols at 60% MST power. […] KD values were determined using the NanoTemper analysis software (NT Analysis 1.5.37 or 2.2.31).
Following this in silico screening, the inventors identified eight SMCs (#6, #23, #24, #25, #30, #32, #33, #34, see Table 1). […] The SMCs that specifically bind the degradation pocket of WASp were further evaluated by the inventors.

average FRET efficiency (WIP-WASp interaction) | binding to WASp (human WASp) | SMILES | lymphocyte activation (CD69, activated LFA-1) (PBMCs) | mean cell displacement (Jurkat T cells) | intra-cellular calcium concentration in activated platelets (platelets)
24.4±1.4% |  | COC(=O)c1ccc2c(=O)n(Cc3ccc(C(=O)NC4CCCC4)cc3)c(=S)[nH]c2c1 [SMC #30, 3-(4-Cyclopentylcarbamoyl-benzyl)-4-oxo-2-thioxo-1,2,3,4-tetrahydro-quinazoline-7-carboxylic acid methyl ester] | upregulation of lymphocyte activation | 41.07±4.69 | dramatically enhanced
 | did not show binding | C[C@@H](N)[C@H]1CC[C@H](C(=O)Nc2ccncc2)CC1 [Y-27632] |  |  | 
